Data published in the METLIN SMRT retention time set (Domingo-Almenara et al. 2019).

Assay: gradient 5% acetonitrile 3 min, to 50% in 2 min, to 85% in 15 min, held 3 min, 100 µL/min
Conditions: column: Zorbax Extend-C18 2.1 x 50 mm; eluents: water / acetonitrile, 0.1% formic acid
Method in brief: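 The system's dead and dwell volumes were 40 μL and 900 μL, with a Zorbax Extend-C18 column (2.1 × 50 mm, 1.8 μm) run at 100 μL/min in water and acetonitrile containing 0.1% formic acid each. Pure standards were analyzed in mixtures of ~100 molecules by HPLC–quadrupole time-of-flight mass spectrometry in positive and negative ionization mode. Retention time was assigned from computationally picked, manually inspected adduct peaks.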

| SMILES | RP-LC retention time |
| --- | --- |
| O=C(Nc1ccc(Cl)cc1)N1CCC(N2CCN(Cc3ccccc3)C(=O)C2=O)CC1 | 764 s |
| Cc1ccc(NC(=O)/C=C/c2ccccc2)c(C)c1 | 913 s |
| CCCN1C(=O)Cc2cc(C(=O)N3CCN(c4ccc(OC)cc4)CC3)ccc21 | 748 s |
| CCC(CC)C(=O)Nc1nc(-c2ccc3c(c2)N(CC)C(=O)CO3)c(C)s1 | 1270 s |
| O=C(NCCn1nc(-c2ccncc2)ccc1=O)c1ccc(C(F)(F)F)cc1 | 570 s |
| CC(C)c1ccc(-n2nc(N3CCN(C(=O)c4cc5ccccc5[nH]4)CC3)ccc2=O)cc1 | 998 s |
| O=C(NCCCN1CCN(c2ccccc2F)CC1)C1CCCN(c2nc3cccnc3s2)C1 (centres undefined) | 652 s |
| Cc1cc(C)cc(NC(=O)C2CCCN2S(=O)(=O)c2cc3c(cc2C)NC(=O)C(C)O3)c1 (centres undefined) | 852 s |
| CCSc1nnc(NC(=O)CCCn2nc(-c3ccc(OC)cc3)ccc2=O)s1 | 730 s |
| COc1ccccc1/C=C(\C#N)C(=O)O | 801 s |
| Cc1ccc(S(=O)(=O)N2CCCCCC2c2nnc(C)o2)c(C)c1 (centres undefined) | 862 s |
| CN(CC1CCOC1)C(=O)NCCc1ccccc1 (centres undefined) | 650 s |
| O=C(O)CC1Sc2ccccc2NC1=O (centres undefined) | 607 s |
| CCOC(=O)C1CCN(C(=O)c2ccc3c(c2)NC(=O)C2CCCCN32)CC1 (centres undefined) | 554 s |
| COc1ccc(-c2noc(-c3nnn4c3COC(c3ccc(Cl)cc3)C4)n2)cc1F (centres undefined) | 1230 s |
| COc1ccc(C2CC(=O)N(c3ccc(C)cc3C)C(=O)C2)cc1OC | 889 s |
| O=C(NCc1ccccc1)c1c(O)c2cccnc2n(Cc2ccccc2)c1=O | 1370 s |
| CN(C)CCOc1ccccc1Cc1ccccc1 | 762 s |
| CC1=NN(c2cccc(C(=O)O)c2)C(=O)/C1=C\c1ccc(-c2ccc(Cl)c(C(=O)O)c2)o1 | 1050 s |
| COc1ccc(OC)c(S(=O)(=O)N2CCCC(C(=O)NC3CC3)C2)c1 (centres undefined) | 710 s |

| SMILES | RP-LC retention time |
| --- | --- |
| Cc1ccc(Nc2c(-c3ccc(N(C)C)cc3)nc3ncccn23)cc1C | 792 s |
| Cc1ccn2c(NC(=O)COc3ccccc3)c(-c3ccccc3)nc2c1 | 683 s |
| Cc1c(Cl)cccc1N1C(=O)CN(S(C)(=O)=O)CC1(C)C(=O)NC1CCCCCC1 (centres undefined) | 938 s |
| COC(=O)c1cc(S(=O)(=O)N2CCCC2C(=O)Nc2ccc(F)c(Cl)c2)cn1C (centres undefined) | 978 s |
| CCc1cccc(NC(=O)C2CCN(C(=O)C3Sc4ccccc4NC3=O)CC2)c1 (centres undefined) | 762 s |
| O=C1/C(=C\c2cccs2)Oc2ccccc21 | 958 s |
| CCc1ccc(NC(=O)N2CCC3(CC2)NC(=O)c2ccc(Cl)cc2N3CC)cc1 | 968 s |
| CCOc1ccc(S(=O)(=O)N2CCC(c3noc(-c4cccc(OC)c4)n3)CC2)cc1 | 1150 s |
| OCCN1CCN(CC(O)COc2ccc3c(c2)CCC3)CC1 (centres undefined) | 553 s |
| Cc1ccn2cc(-c3ccc(NC(=O)c4ccccc4C(F)(F)F)cc3)nc2n1 | 664 s |
| COC(=O)c1c(NCc2ccc(SC)cc2)c2cccc(Cl)c2[nH]c1=O | 853 s |
| COc1cc(=O)n2c(c1C(=O)Nc1ccc(Br)cc1F)CCCC2 | 777 s |
| CCc1nc(-c2csc(S(=O)(=O)N3CCCC(C(=O)Nc4ccc(F)cc4)C3)c2)no1 (centres undefined) | 1030 s |
| O=S(=O)(c1ccc(-c2nnc(C3CCC3)o2)o1)N1CCN(C2CCCCC2)CC1 | 690 s |
| Cc1ccsc1CN1CCn2nnc(CCC(=O)N3CCOCC3)c2C1 | 628 s |
| O=C(Nc1nc(-c2ccc(F)cc2)cs1)c1c(-c2ccc(F)cc2)nc2n1CCS2(=O)=O | 1050 s |
| CN(CCCNC(=O)CN1C(=O)CSc2cccn2-c2ccccc21)Cc1ccccc1 | 677 s |
| COc1ccc(OCc2noc(CNC(=O)CCC(=O)c3ccccc3)n2)cc1 | 712 s |
| Cc1cc(C)cc(N2C(=O)N(CC(=O)N3CCC(C)CC3)C3CS(=O)(=O)CC32)c1 (centres undefined) | 816 s |
| Fc1cccc(-c2nc(-c3cn(-c4cccc(F)c4)nn3)no2)c1 | 1090 s |

| SMILES | RP-LC retention time |
| --- | --- |
| CCc1cccc(NC(=O)C2CCN(S(=O)(=O)c3cn(C)cn3)CC2)c1 | 732 s |
| CCC(C)NC(=O)c1ccc2c(c1)CC(=O)N2C (centres undefined) | 644 s |
| Cc1ccc(CNS(=O)(=O)c2c(-c3nnc(C)o3)c(C)n(C)c2C)o1 | 780 s |
| CCCN(Cc1ccc(OC)cc1)Cc1cc(=O)n2cc(C)ccc2n1 | 633 s |
| COc1cccc(-c2nc(C3CCN(S(=O)(=O)c4cc(C)ccc4C)CC3)no2)c1 | 1210 s |
| Cc1ncc2c(n1)C[C@@H]1CC[C@H]2N1C(=O)NCCc1ccccc1 | 647 s |
| O=C(CCC(=O)N1CC2CCCN2c2ccccc21)NCCCN1CCCC1 (centres undefined) | 627 s |
| CCOC(=O)c1nc(NCCCN2CCN(c3ccc(F)cc3)CC2)c2ccccc2n1 | 647 s |
| CCn1nccc1C(=O)Nc1c(-c2cccc(F)c2)nc2sc(N3CCCCC3)nn12 | 964 s |
| Cc1ccc2c(c1)N(CCCC(=O)NCCCN1CC(C)CC(C)C1)C(=O)CO2 (centres undefined) | 674 s |
| O=c1ccc(-c2ccc3c(c2)OCO3)nn1Cc1nc(-c2ccc3c(c2)OCO3)no1 | 934 s |
| O=C(NCC1CCS(=O)(=O)C1)c1cc(-c2ccc(F)cc2)n[nH]1 (centres undefined) | 643 s |
| COc1ccc(Cn2c(=O)c3sccc3n(Cc3nc(-c4ccc(C)cc4)no3)c2=O)cc1 | 1060 s |
| CC(n1cc(C[C@H](N)C(=O)O)c2ccccc21)n1cc(C[C@H](N)C(=O)O)c2ccccc21 | 628 s |
| Cc1nc(-c2csc(S(=O)(=O)N3CCC(C(=O)NCCc4ccc(Cl)cc4)CC3)c2)no1 | 938 s |
| NC(=O)C1CCc2sc(C(=O)N3CCCCCC3)cc2C1 (centres undefined) | 663 s |
| Cc1ccn2cc(C(=O)NCc3ccccc3Cl)nc2c1 | 675 s |
| O=S(=O)(Nc1ccc(F)cc1F)c1ccc(-c2nnc(C3CCC3)o2)o1 | 879 s |
| O=C(NCc1ccccc1)NC1CCN(C(=O)N2C[C@H]3C[C@H](C2)[C@H]2CCCC(=O)N2C3)CC1 | 660 s |

The next lines start with the values.

| RP-LC retention time | SMILES |
| --- | --- |
| 675 s | CC(C)c1nc(N2CCCC2=O)sc1C(=O)NCc1ccc(N(C)C)cc1 |
| 733 s | Cc1nn(CC(=O)NC(C)C)c(=O)c2nc(-c3ccccc3)sc12 |
| 964 s | COC(=O)c1cccc(-c2nc(-c3cn(Cc4ccccc4)nn3)no2)c1 |
| 704 s | Cc1ccc(CNC(=O)C2CCCN(c3nnc4c(Cl)cccn34)C2)o1 (centres undefined) |
| 614 s | COCCN1C(=O)CCc2c(C)nc(-c3cccnc3)nc21 |
| 1130 s | CCCc1noc(-c2ccc(-n3ncc(C(=O)N4CCC(C)CC4)c3C)nc2)n1 |
| 585 s | CCn1c(C2CCN(S(=O)(=O)c3ccc4c(c3)CCCC4)C2)nc2ccncc21 (centres undefined) |
| 604 s | O=C(N[C@@H]1CN(c2ccncn2)C[C@H]1CO)c1ccc2ccccc2n1 |
| 664 s | O=S(=O)(NCCOc1cc(N2CCCC2)ncn1)c1ccc(Cl)s1 |
| 969 s | CC(=O)c1ccc(-n2ccc3c(cnc4c(-c5ccccc5)c(C)nn43)c2=O)cc1 |
| 673 s | O=C(Nc1ccc2c(c1)OCCO2)C1CCN(c2cncnc2N2CCCCC2)CC1 |
| 715 s | COc1cccc(CNC(=O)C2CCCN(c3nnc(C)c4c(C)n(-c5ccccc5)nc34)C2)c1 (centres undefined) |
| 1060 s | Cc1noc(C)c1-c1ccc(S(=O)(=O)N2CCCc3ccccc32)cc1 |
| 703 s | COc1cc(OC)c(NC(=O)N2CCCC(Cn3cnc4cccnc43)C2)cc1Cl (centres undefined) |
| 828 s | CC(C)c1nc(-c2ccc(C(=O)N3CCN(c4nc5cccnc5o4)CC3)cc2)no1 |
| 821 s | CCCNC(=O)c1nc(-c2ccc3c(c2)OCC(=O)N3CC)no1 |
| 646 s | COc1ccccc1C(=O)N1CCCC(c2nnc(C)s2)C1 (centres undefined) |
| 716 s | O=[N+]([O-])c1cccnc1Oc1cccnc1 |
| 1040 s | COc1ccccc1CCC(=O)N1CCc2cc(-c3ccno3)ccc21 |
| 723 s | Cc1ccc(-c2cn3cccnc3n2)cc1NC(=O)c1cccc(Br)c1 |
| 718 s | Cc1nc2cc(N3CC(C(=O)Nc4ccc(F)cc4C)CC3=O)ccc2o1 (centres undefined) |
| 1080 s | CCOC(=O)c1cc(OCC)c2c(ccc3ccccc32)n1 |
| 894 s | CCn1cc(-c2nc(CC(=O)Nc3ccc(F)cc3)cs2)c2cccnc21 |
| 692 s | Cc1cnc(-c2ccncc2)n1CC1CN(Cc2cccn2C)C1 |
| 764 s | Cc1ccc(CNC(=O)Cn2c(C)nc3onc(C)c3c2=O)cc1 |
| 840 s | Cc1nn2c(CNC(=O)c3ccc(F)cc3)c(-c3ccccc3)nc2s1 |
| 1180 s | CCc1ccc(-c2ccc(=O)n(CCc3nc(-c4ccc(C)cc4)no3)n2)cc1 |
| 1120 s | CCCCn1cc(S(=O)(=O)N2CCN(c3ccc(F)cc3)CC2)c2cccnc21 |
| 539 s | Cc1ncnc2c1CCC(=O)N2Cc1cccnc1 |
| 593 s | COc1cc(Cl)ccc1C(=O)N1CCc2nc[nH]c2C1 |
